Assay results: patent publication US10463651B2, “3-(1H-pyrrolo[3,2-C]pyridin-2-YL)-1H-indazoles and therapeutic uses thereof” (Samumed, LLC, priority 2015, dated 2019)

Tests used:
Format in all cases: cell-based
[1] = tested on: Wnt activity (Sp5-Luc reporter, SW480 colon carcinoma cells); experiment: Screening assay for Wnt activity (Sp5-Luc reporter gene assay in SW480 cells); settings: Homo sapiens; for EC50: Sp5-Luc reporter, SW480 cells, incubated overnight; for inhibition at 10 µM: SW480, read-out: percent inhibition at 10 μM
Summary of the method: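 SW480 colon carcinoma cells stably carrying Sp5 promoter (eight TCF/LEF sites)-driven firefly luciferase, plated at 4,000 cells/well in 1% FBS medium and incubated overnight at 37° C. Luminescence normalised to DMSO-only cells; EC50 from four-parameter variable-slope nonlinear regression.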

SW480 colon cancer cells = experiment: Cell viability assay (CellTiter-Blue); settings: Homo sapiens; for EC50: 96 h, SW480 cell viability, four days, CellTiter-Blue; for inhibition at 10 µM: SW480, 96 h, read-out: percent inhibition at 10 μM
Summary of the method: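 Fluorescence from resazurin reduced to resorufin by metabolically active cells was the read-out, taken after ~3 h with CellTiter-Blue.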

[2] = tested on: primary human fibroblasts derived from IPF patients (LL29 cells) treated with TGF-β1; experiment: Inhibition of the fibrotic process (αSMA staining) in TGF-β1-treated fibroblasts; settings: Fibroblast, 96 h, % αSMA-positive LL29 cells, TGF-β1 20 ng/mL, 4 days
Summary of the method: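 LL29 fibroblasts from IPF patients, 1,500 cells/well in F12 with 1% FBS, stimulated with TGF-β1; TGF-β1 plus DMSO wells as controls. Incubation 4 days, then SYTOX green 1 μM final for 30 min at room temperature. Fibrotic response read as αSMA staining.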

[3] = tested on: primary human mesenchymal stem cells (hMSCs); experiment: Induction of chondrogenesis in hMSCs (Rhodamine B / Nile Red nodule imaging); settings: for EC50: concentration required to induce 50% levels of chondrogenesis vs TGF-β3 positive control, read-out: Conc (nM) of 50% TGF-β3 activity; for Emax: maximum activity relative to TGF-β3 (10 ng/mL) positive control, read-out: Max. Activity as % TGF-β3 activity
Text: Representative compounds were screened using primary human mesenchymal stem cells (hMSCs) to determine their ability to induce chondrogenesis (process by which cartilage is developed).
Primary human mesenchymal stem cells (hMSCs) were purchased from Lonza (Walkersville, Md.) and expanded in Mesenchymal Stem Cell Growth Media (Lonza). Cells between passage 3 and 6 were used for the experiments.
Area of nodules in each well was normalized to the average of 3 DMSO treated wells on the same plate using Excel (Microsoft Inc.). The normalized averages (fold change over DMSO) of 2 or 3 replicate wells for each compound concentration were calculated. Due to solubility limitations of some of the compounds, curve fitting was incomplete leading to inaccurate EC50 determinations.
Using TGF-β3 as a positive control, the concentration of representative compounds required to induce 50% levels of chondrogenesis is reported. In addition, the maximum activity of each compound and the respective dose that each compound reached maximum chondrogenesis activity is reported.

IL-6 (THP-1 cells) = experiment: IL-6 inhibition in LPS-stimulated THP-1 cells (HTRF); settings: Homo sapiens; for EC50: IL6 by HTRF, THP-1 cells, 500 ng/mL LPS, 22 hours
Summary of the method: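 THP-1 cells, pre-cultured 24 h in 1% FBS medium, treated with compound 2 h at 37 °C, then stimulated with 500 ng/mL LPS for 22 h. Secreted IL-6 measured by HTRF as the 665/620 nm ratio. Values normalized to DMSO; EC50 from four-parameter fit, duplicates.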

| SMILES | EC50 [1] [nM] | EC50 (SW480 colon cancer cells) [nM] | EC50 [2] [nM] | EC50 [3] [nM] | Emax [3] [%] | EC50 (IL-6 (THP-1 cells)) [nM] | inhibition at 10 µM [1] [%] | inhibition at 10 µM (SW480 colon cancer cells) [%] | inhibition at 10 µM (IL-6 (THP-1 cells); THP-1, read-out: percent inhibition at 10 M) [%] |
| --- | --- | --- | --- | --- | --- | --- | --- | --- | --- |
| Cc1ccncc1-c1ccc2[nH]nc(-c3cc4c(-c5cc(F)cc(CNS(C)(=O)=O)c5)nccc4[nH]3)c2c1 [Compound 481, N-(3-Fluoro-5-(2-(5-(4-methylpyridin-3-yl)-1H-indazol-3-yl)-1H-pyrrolo[3,2-c]pyridin-4-yl)benzyl)methanesulfonamide] | 304 | 500 | 528 | 300 | 267 | 103 | – | – | – |
| c1ncc(-c2ccc3[nH]nc(-c4cc5c(-c6ccoc6)nccc5[nH]4)c3c2)cn1 [Compound 335, 3-(4-(Furan-3-yl)-1H-pyrrolo[3,2-c]pyridin-2-yl)-5-(pyrimidin-5-yl)-1H-indazole] | 1910 | 438 | 349 | – | 40 | 508 | – | – | – |
| Cc1ccncc1-c1ccc2[nH]nc(-c3cc4c(-c5ccoc5)nccc4[nH]3)c2c1 [Compound 313, 3-(4-(Furan-3-yl)-1H-pyrrolo[3,2-c]pyridin-2-yl)-5-(4-methylpyridin-3-yl)-1H-indazole] | 614 | 1580 | 286 | 2700 | 153 | 649 | – | – | – |
| O=C(Nc1cncc(-c2ccc3[nH]nc(-c4cc5c(-c6ccc(F)cc6)nccc5[nH]4)c3c2)c1)C1CCC1 [Compound 49, N-(5-(3-(4-(4-Fluorophenyl)-1H-pyrrolo[3,2-c]pyridin-2-yl)-1H-indazol-5-yl)pyridin-3-yl)cyclobutanecarboxamide] | 365 | 186 | 115 | 900 | 160 | 1080 | – | – | – |
| O=C(Nc1cncc(-c2ccc3[nH]nc(-c4cc5c(-c6ccncc6)nccc5[nH]4)c3c2)c1)C1CCCC1 [Compound 134, N-(5-(3-(4-(Pyridin-4-yl)-1H-pyrrolo[3,2-c]pyridin-2-yl)-1H-indazol-5-yl)pyridin-3-yl)cyclopentanecarboxamide] | > 10000 | > 10000 | 2440 | 30 | 114 | 9740 | 20.6 | 4.2 | – |
| Nc1cncc(-c2ccc3[nH]nc(-c4cc5c(-c6cccnc6)nccc5[nH]4)c3c2)c1 [Compound 87, 5-(3-(4-(Pyridin-3-yl)-1H-pyrrolo[3,2-c]pyridin-2-yl)-1H-indazol-5-yl)pyridin-3-amine] | 146 | 562 | 113 | 100 | 178 | 86 | – | – | – |
| CCC(=O)Nc1cncc(-c2ccc3[nH]nc(-c4cc5cnccc5[nH]4)c3c2)c1 [Compound 253, N-(5-(3-(1H-Pyrrolo[3,2-c]pyridin-2-yl)-1H-indazol-5-yl)pyridin-3-yl) propionamide] | 150 | 533 | 499 | 900 | 259 | 189 | – | – | – |
| Fc1cccc(-c2nccc3[nH]c(-c4n[nH]c5ccc(-c6cncc(CN7CCC(F)(F)C7)c6)cc45)cc23)c1 [Compound 26, 5-(5-((3,3-Difluoropyrrolidin-1-yl)methyl)pyridin-3-yl)-3-(4-(3-fluorophenyl)-1H-pyrrolo[3,2-c]pyridin-2-yl)-1H-indazole] | 125 | 293 | 169 | 10 | 228 | 142 | – | – | – |
| c1cncc(-c2ccc3[nH]nc(-c4cc5c(N6CCCCC6)nccc5[nH]4)c3c2)c1 [Compound 172, 3-(4-(Piperidin-1-yl)-1H-pyrrolo[3,2-c]pyridin-2-yl)-5-(pyridin-3-yl)-1H-indazole] | 480 | 844 | 1050 | 10 | 172 | 189 | – | – | – |
| CN1CCN(c2nccc3[nH]c(-c4n[nH]c5ccc(-c6cncc(NC(=O)CC7CCNCC7)c6)cc45)cc23)CC1 [Compound 641] | > 10000 | > 10000 | 9900 | – | 43 | > 10000 | 0 | 20.9 | 28.7 |
